The text below walks through data of ChEMBL document CHEMBL1155214, “Structure-affinity relationships of glutamine mimics incorporated into phosphopeptides targeted to the SH2 domain of signal transducer and activator of transcription 3” (J Med Chem, 2009).

Each structure is given as a SMILES string.

The target in the first assay is T1, Signal transducer and activator of transcription 3 (Homo sapiens, UniProt P40763). The assay can be described thus: Inhibition of Stat3 SH2 domain by fluorescence polarization assay.
T1 sequence (P40763 whole entry, the tested form may be a part): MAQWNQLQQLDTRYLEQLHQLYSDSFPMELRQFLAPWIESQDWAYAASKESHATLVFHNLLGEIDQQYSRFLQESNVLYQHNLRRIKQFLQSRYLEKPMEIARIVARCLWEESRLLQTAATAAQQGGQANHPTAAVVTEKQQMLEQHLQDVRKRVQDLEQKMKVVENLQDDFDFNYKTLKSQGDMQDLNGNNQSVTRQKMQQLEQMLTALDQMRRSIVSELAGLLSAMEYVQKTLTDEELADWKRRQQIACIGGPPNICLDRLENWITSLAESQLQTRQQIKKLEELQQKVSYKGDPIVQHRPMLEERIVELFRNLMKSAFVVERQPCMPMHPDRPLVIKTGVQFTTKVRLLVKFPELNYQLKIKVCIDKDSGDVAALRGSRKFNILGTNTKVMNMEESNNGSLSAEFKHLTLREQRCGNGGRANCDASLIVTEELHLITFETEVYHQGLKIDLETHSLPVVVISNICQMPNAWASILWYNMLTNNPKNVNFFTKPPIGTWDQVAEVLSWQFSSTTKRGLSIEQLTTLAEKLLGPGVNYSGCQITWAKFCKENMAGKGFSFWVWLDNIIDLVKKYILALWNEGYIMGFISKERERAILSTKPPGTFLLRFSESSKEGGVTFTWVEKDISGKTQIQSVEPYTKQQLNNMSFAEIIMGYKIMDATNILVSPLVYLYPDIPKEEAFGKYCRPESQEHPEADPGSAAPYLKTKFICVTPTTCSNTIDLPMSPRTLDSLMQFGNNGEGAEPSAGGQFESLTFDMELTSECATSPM
On to `CC(C)C[C@H](CCC(N)=O)NC(=O)[C@@H]1[C@@H]2C[C@@H]2CN1C(=O)[C@H](CC(C)C)NC(=O)/C=C/c1ccc(OP(=O)(O)O)cc1`, for which the concentration for half-maximal inhibition (IC50) came out at 1630 nM.
Same read-out and setting: then `CC(=O)NC[C@H](CCC(N)=O)NC(=O)[C@@H]1CCCN1C(=O)[C@H](CC(C)C)NC(=O)/C=C/c1ccc(OP(=O)(O)O)cc1`, with 589 nM.
The same measure, in the same setting: then `CC(C)C[C@H](NC(=O)/C=C/c1ccc(OP(=O)(O)O)cc1)C(=O)N1CCC[C@H]1C(=O)N[C@H](COCc1ccccc1)COC(N)=O`, with 454 nM; and `CC(C)C[C@H](NC(=O)/C=C/c1ccc(OP(=O)(O)O)cc1)C(=O)N1CCC[C@H]1C(=O)N[C@@H](CCC(N)=O)CN1CCN(C)CC1`, with 1310 nM; and `CC(C)C[C@H](NC(=O)/C=C/c1ccc(OP(=O)(O)O)cc1)C(=O)N1CCC[C@H]1C(=O)N[C@H](C)CNC(N)=O`, with 1350 nM.
On the same count and under the same terms, then `CC(C)C[C@H](NC(=O)/C=C/c1ccc(OP(=O)(O)O)cc1)C(=O)N1C[C@H]2C[C@H]2[C@H]1C(=O)N[C@@H](CCC(N)=O)COCc1ccccc1`, with 94 nM.
Regarding `CCCC[C@H](CCC(N)=O)NC(=O)[C@@H]1CCCN1C(=O)[C@H](CC(C)C)NC(=O)/C=C/c1ccc(OP(=O)(O)O)cc1`, 1350 nM corresponded to half-maximal inhibition (IC50).
Same read-out and setting: then `CC(C)C[C@H](CCC(N)=O)NC(=O)[C@@H]1CCCN1C(=O)[C@H](CC(C)C)NC(=O)/C=C/c1ccc(OP(=O)(O)O)cc1`, with 4900 nM.
Same read-out and setting: then `CC(C)C[C@H](NC(=O)/C=C/c1ccc(OP(=O)(O)O)cc1)C(=O)N1C[C@H]2C[C@H]2[C@H]1C(=O)NCCCC(N)=O`, with 303 nM; and `CC(C)C[C@H](NC(=O)/C=C/c1ccc(OP(=O)(O)O)cc1)C(=O)N1C[C@H]2C[C@H]2[C@H]1C(=O)N[C@H](C)CCC(N)=O`, with 175 nM.
Turning to `CC(C)C[C@H](NC(=O)/C=C/c1ccc(OP(=O)(O)O)cc1)C(=O)N1C[C@H]2C[C@H]2[C@H]1C(=O)N[C@@H](CCC(N)=O)[C@@H](C)O`, the IC50 was found to be 437 nM.
For the compound `CC(C)C[C@H](NC(=O)/C=C/c1ccc(OP(=O)(O)O)cc1)C(=O)N1CCC[C@H]1C(=O)N[C@@H](CCC(N)=O)Cc1ccc(O)cc1`, it took 848 nM to reach half-maximal inhibition (IC50).
`CC(C)C[C@H](NC(=O)/C=C/c1ccc(OP(=O)(O)O)cc1)C(=O)N1CCC[C@H]1C(=O)N[C@@H](CCC(N)=O)CN1CCCCC1` yielded a half-maximal inhibitory concentration (IC50) of 1210 nM.
Still for that read-out and setting: under `CC(C)C[C@H](NC(=O)/C=C/c1ccc(OP(=O)(O)O)cc1)C(=O)N1C[C@H]2C[C@H]2[C@H]1C(=O)N[C@@H](CCC(N)=O)C(=O)NCc1ccccc1` stands 68 nM; under `CC(C)C[C@H](NC(=O)/C=C/c1ccc(OP(=O)(O)O)cc1)C(=O)N1CCC[C@H]1C(=O)N[C@@H](CCC(N)=O)C(C)C`, 1880 nM; under `CC(C)C[C@H](NC(=O)/C=C/c1ccc(OP(=O)(O)O)cc1)C(=O)N1CCC[C@H]1C(=O)NCCNC(N)=O`, 131 nM.
Still for that read-out and setting: under `CC(C)C[C@H](NC(=O)/C=C/c1ccc(OP(=O)(O)O)cc1)C(=O)N1CCC[C@H]1C(=O)N[C@@H](CCC(N)=O)COC(N)=O` stands 615 nM; under `CC(C)C[C@H](NC(=O)/C=C/c1ccc(OP(=O)(O)O)cc1)C(=O)N1C[C@H]2C[C@H]2[C@H]1C(=O)N[C@@H](CCC(N)=O)C(C)C`, 511 nM.
Still for that read-out and setting: under `CC(C)C[C@H](NC(=O)/C=C/c1ccc(OP(=O)(O)O)cc1)C(=O)N1C[C@H]2C[C@H]2[C@H]1C(=O)N[C@@H](CCC(N)=O)[C@@H](C)OCc1ccccc1` (mixture of isomers) stands 69 nM; under `CC(C)C[C@H](NC(=O)/C=C/c1ccc(OP(=O)(O)O)cc1)C(=O)N1CCC[C@H]1C(=O)N[C@@H](CCC(N)=O)CN1CCOCC1`, 1530 nM; under `CC(C)C[C@H](NC(=O)/C=C/c1ccc(OP(=O)(O)O)cc1)C(=O)N1CCC[C@H]1C(=O)NCCOC(N)=O`, 360 nM.
Turning to `CC(C)C[C@H](NC(=O)/C=C/c1ccc(OP(=O)(O)O)cc1)C(=O)N1CCC[C@H]1C(=O)N[C@@H](CCC(N)=O)CN(Cc1ccccc1)Cc1ccccc1`, the IC50 worked out at 1080 nM.
Still for that read-out and setting: under `CC(C)C[C@H](NC(=O)/C=C/c1ccc(OP(=O)(O)O)cc1)C(=O)N1C[C@H]2C[C@H]2[C@H]1C(=O)NCCOCc1ccccc1` stands 69 nM; under `CC(C)C[C@H](NC(=O)/C=C/c1ccc(OP(=O)(O)O)cc1)C(=O)N1CCC[C@H]1C(=O)N[C@H](CN)CCC(N)=O`, 1240 nM.
The same measure, in the same setting: under `CC(C)C[C@H](NC(=O)/C=C/c1ccc(OP(=O)(O)O)cc1)C(=O)N1CCC[C@H]1C(=O)N[C@H](C)COC(N)=O` stands 797 nM.

In another assay the target is T1, Signal transducer and activator of transcription 3. The assay can be described thus: Ratio of compound IC50 to 4-(3-((S)-1-((S)-2-((S)-5-amino-1-(benzylamino)-1,5-dioxopentan-2-ylcarbamoyl)pyrrolidin-1-yl)-4-methyl-1-oxopentan-2-ylamino)-3-oxoprop-1-enyl)phenyl dihydrogen phosphate IC50 for Stat3 SH2 domain.
With `CC(C)C[C@H](NC(=O)/C=C/c1ccc(OP(=O)(O)O)cc1)C(=O)N1CCC[C@H]1C(=O)N[C@H](C(=O)NCc1ccccc1)[C@@H](C)OC(N)=O`, the Ratio IC50 was determined as 6.
Still for that read-out and setting: then `CC(C)C[C@H](NC(=O)/C=C/c1ccc(OP(=O)(O)O)cc1)C(=O)N1CCC[C@H]1C(=O)N[C@@H](COC(N)=O)C(=O)NCc1ccccc1`, with 3.
